Laboratory results from PMC4865820, “Branched Peptide, B2088, Disrupts the Supramolecular Organization of Lipopolysaccharides and Sensitizes the Gram-negative Bacteria” (Scientific Reports, 2016).
Positions of bridges follow the written chain, without caps; N, C: chain ends. Non-standard residues stand in square brackets, D forms with d. Residues, ends and D or L forms follow the SMILES beside them. Chains are numbered I, II in the order given. *: point of attachment. X1 = CC[C@H](C)CCCCC(=O)*; Dab = NCC[C@H](N)C(=O)O

What was measured:
P. aeruginosa ATCC 27853 = test: microbe, parasite or virus in culture; type: cell-based
Method in brief: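 Peptides two-fold diluted in Mueller-Hinton Broth (0.0976–50 μg/ml final) against 10^5–10^6 CFU/ml inoculum, 37 °C for 24 h with OD600 monitored every 30 min. MIC = lowest concentration with no visible growth; two independent duplicates.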

P. aeruginosa ATCC 9027 [1] = test: Outer membrane permeability assay (NPN); type: cell-based; conditions: no unit in table; Fig. S5 axis [Peptide], μM; 10 μM NPN, 5 mM HEPES pH 7.4, ex 355/em 405 nm; average of two titrations; read-out: PC50 (peptide concentration for half-maximal NPN intensity, OM permeability)
Method in brief: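 Overnight MHB-grown cells were washed and resuspended in 5 mM HEPES pH 7.4 to OD600 0.200, then loaded with 10 μM NPN (final), with peptide titrated in after dye stabilization. Fluorescence ex 355/em 405 nm; PC50 is the peptide concentration giving half-maximal intensity, from a sigmoidal fit averaged over two titrations.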

P. aeruginosa ATCC 9027 [2] = test: Mice model of infectious keratitis; type: in vivo, C57BL6 mice; conditions: for Corneal bacterial burden: 0.15% gatifloxacin or 0.05% B2088 alone
Description: The marked synergism between B2088 and gatifloxacin in the mammalian cell culture model prompted us to investigate the efficacy of the combinations in vivo. A mouse model of keratitis was used to examine the efficacy of peptide-antibiotics combinations. After infection of the cornea with P. aeruginosa ATCC 9027 strains, mice were treated with gatifloxacin (0.15% w/v) or B2088 (0.05%) alone as well as gatifloxacin (0.15%) in combination with B2088 (0.05% w/v). […] (Fig. 7c,d and Supplementary Fig. S3).
Wild type C57BL6 (6–8 weeks old and weighs about 20-30 gram) female mice purchased from National University of Singapore were used for this study. P. aeruginosa ATCC 9027 was grown overnight in TSA (Tryptic Soy Agar) at 37 °C. Concentration of 3 × 10^8 bacterial stock was prepared for mice corneal infection with United States Phosphate Buffer (USP) by resuspending few colonies from the overnight cultured TSA plates.
Healthy mice with good corneal clarity were chosen for this study through careful monitoring with slit-lamp biomicroscopy. A total of 60 mice were used for this study (n = 12 for 5 groups) at different time points (day1, day2, day3 post treatment). The animals were anesthetized subcutaneously by 0.2 ml of ketamine (100 mg/ml) and 0.1 ml of xylazil (20 mg/ml) in 0.7 ml of normal saline (0.08 ml/mice). […] Topical application of bacteria suspension (10 μl) was applied to the scratched cornea. All the animals had been treated with the antibiotics or peptide/antibiotics combinations (3 times/day) started from day1 post infection.
At post treatment day1, day 2 and day 3, four animals from each group were euthanized. The infected corneas was dissected and processed for colony counting. Single individual cornea from different groups was homogenized in sterile 0.9% NaCl containing 0.25% BSA and diluted serially (10^1 to 10^2 fold dilution), plated in duplicates on TSA plates and incubated for 48 h at 37 °C. The number of viable bacteria was enumerated as before.

In the case of `CC[C@H](C)CCCCC(=O)N[C@@H](CCN)C(=O)N[C@H](C(=O)N[C@@H](CCN)C(=O)N[C@H]1CCNC(=O)[C@H]([C@@H](C)O)NC(=O)[C@H](CCN)NC(=O)[C@H](CCN)NC(=O)[C@H](CC(C)C)NC(=O)[C@@H](Cc2ccccc2)NC(=O)[C@H](CCN)NC1=O)[C@@H](C)O` [Polymyxin B, polymyxin B, reference compound] (X1-[Dab]T[Dab][Dab][Dab][dF]L[Dab][Dab]T; lactam 4-C (inferred); N-terminus assumed), the “Minimum Inhibitory Concentration against P. aeruginosa ATCC 27853” value (P. aeruginosa ATCC 27853; MHB, 10^5–10^6 CFU/ml, 37 °C, 24 h, two independent duplicates) is reported as 0.57 µM and the EC50 (P. aeruginosa ATCC 9027 [1]) is reported as 5.82 ± 0.6 µM.
For `CC(C)[C@H](NC(=O)[C@H](CCCCN)NC(=O)[C@H](CCCNC(=N)N)NC(=O)CNC(=O)[C@@H](N)CCCNC(=N)N)C(=O)N[C@H](C(=O)N[C@@H](CCCNC(=N)N)C(=O)N[C@@H](CCCNC(=N)N)C(=O)NCCCC[C@H](NC(=O)[C@H](CCCNC(=N)N)NC(=O)[C@H](CCCNC(=N)N)NC(=O)[C@@H](NC(=O)[C@@H](NC(=O)[C@H](CCCCN)NC(=O)[C@H](CCCNC(=N)N)NC(=O)CNC(=O)[C@@H](N)CCCNC(=N)N)C(C)C)C(C)C)C(=O)N[C@@H](CCCCN)C(=O)O)C(C)C` [B2088] (I: H-RGRKVVRRKK-OH / II: H-RGRKVVRR; amide I:9-II:C; N-terminus and C-terminus assumed), the “Reduction of antibiotic use in the presence of B2088” value (P. aeruginosa ATCC 9027 [2]; 0.05% B2088 with gatifloxacin) was “about 50%”, the Corneal bacterial burden (P. aeruginosa ATCC 9027 [2]) was “increased bacterial burden” and the “Minimum Inhibitory Concentration against P. aeruginosa ATCC 27853” value (P. aeruginosa ATCC 27853; ATCC 27853, 24 h) was 2.7 µM. The EC50 (P. aeruginosa ATCC 9027 [1]) was 13.2 ± 0.4 µM.
For `COc1c(N2CCNC(C)C2)c(F)cc2c(=O)c(C(=O)O)cn(C3CC3)c12` (centres unmarked) [Gatifloxacin], the Corneal bacterial burden (P. aeruginosa ATCC 9027 [2]) was “increased bacterial burden” and the “Corneal clarity and bacterial load” value (P. aeruginosa ATCC 9027 [2]; topical 0.3% gatifloxacin, 3 times/day, vs PBS-treated mice) was “clear cornea and less bacterial load”.
